Laboratory results from patent US20040029197A1, “Novel human cancer/testis antigen and gene thereof” (priority 2000, published 2004).
Where no end group is shown, it is not given here.

Tested on: C1R-A24 cells
Test: Cytotoxity test (51Cr release) with peptide-stimulated CD8-positive T cells of a cancer patient
Format: cell-based, human
Conditions: target C1R-A24 cells added with 1 iM of the peptide, effecter CD8-positive T cells after MLPC twice, six hours, FIG. 8
Protocol: Peripheral blood of a patient whose D40 gene expression in the tumor tissue was observed by RT-PCR method was multi-layered in Ficoll-Conray solution with specific gravity of 1.082 and the blood was separated to plasma, lymphocyte phase, Ficoll-Conray phase and erythrocyte phase from the top by centrifugation of 1500 rpm for 30 min. The lymphocyte phase was collected and cultured for a day in AIM-V, a serum-free medium, after which the cell population adhered to the bottom of the culture flask and the suspended cell population were separated by gently shaking the flask. The adhered cell population is a cell population called PBMC (peripheral blood mononuclear cells) which includes B cells, macrophages and dendritic cells that are so-called antigen-presenting cells (APC). […] The APC after the culture were treated with radioactivity in order to get rid of their proliferation ability.
On the other hand, the suspended cell population mainly contains T cells and these suspended cells were cultured in AIM−V+IL−2 for four days. […] These CD8-positive T cells were added to APC, which have been treated with radioactivity as mentioned above, and cultured for two days. […] Then the radioactivity of ^51Cr released from the target C1R-A24 cells were measured and the cytotoxity activity (%) was calculated. […]

## SYTIEINHRL [SYTIEINHRL, Ser-Tyr-Thr-Ile-Glu-Ile-Asn-His-Arg-Leu]
  cytotoxic activity of T cells derived from peripheral blood of a cancer patient: specifically injured target C1R-A24 cells
